This is an account of results in patent US20240417688A1, “METHODS AND SYSTEMS FOR ADIPOCYTES DIFFERENTIATION” (priority 2021, published 2024).

This assay relates to Mesenchymal Stem cells (MSCs). The assay can be described thus: Oil Red O staining and quantification of adipogenic differentiation of MSCs in 2D culture. The format is cell-based. The following applies: FIG. 3; plate reader. As to the method: Palmitoleic, erusic, elaidic, and oleic acids are diluted to 20 mM concentration in ethanol absolute. Each FFA is prepared separately, following which, all […] FFAs are mixed together at equal volumes to create the FFA stock mix.
The stock mix is then added to cell growth medium at a concentration of 100 uM per FFA (dilution of 1:50 from stock mix).
Food grade sunflower lecithin is suspended in PBS 1× at 50 mg/ml concentration, and the suspension is sonicated at medium speed for 1-2 min, to then reach a homogenized solution then filtered through a 0.22 μm filter. The lecithin emulsion is added to cell growth medium at a concentration of 1 mg/ml (dilution of 1:50 from stock solution).
The two mediums were refreshed every 3 days and Oil red O quantification was performed on day 8 of contact.
It is noted, that high cell density can cause a curling effect that produced a cell aggregate, reveling underlying cells. A. (negative control culture)—The cell aggregate falsely stained by ORO (A2); the aggregation reviles few cells on the surface of the well (A1). B. (4FFAs+Insulin treatment) Cells produce a sheet that detaches from the surface (B1), with underlying differentiating cells (B3). C. […]
Turning now to FIG. 3, where Oil Red O (ORO) quantification was carried out after extraction using 2-propanol. ORO was extracted and quantified by absorption reading in a plate reader at 492 nm. […]

insulin: the “Oil Red O (ORO) quantity, absorption at 492 nm after 2-propanol extraction, versus control” value is reported as “no statistical difference than control”.
